According to US7531573B2 (priority 1994, dated 2009):
Like-named read-outs stand apart in the source and are kept apart here.

Experiments:
[1] = molecular target: Gardos channel of erythrocytes (Homo sapiens, UniProt O15554); assay: cell-based
[2] = tested on: hepatic microsomal cytochrome P450; conditions: rats; Matsuura et al., 1991; cited from earlier work
red cell Gardos channel = red cell Gardos channel (Homo sapiens, UniProt O15554); assay: cell-based
Description: CLT and metabolite B (Compound 6) were incubated with a red cell suspension at 20% Hct.

clinical = type: in vivo; conditions: human, plasma, read-out: Levels Plasma; for concentration at 6 day of CLT dosing: CLT day 6; for concentration at 10 day (wash-out): Wash-out day 10; for concentration at 13 day (wash-out): Wash-out day 13; for concentration at 20 day (wash-out): Wash-out day 20
[3] = tested on: colon adenocarcinoma cells (HT29); assay: [3H]thymidine uptake in HT29 cells; type: cell-based, human; conditions: 10 μM
Description: (§1) Human melanoma cells (MM-RU) and colon adenocarcinoma cells (HT29) were cultured in the presence and absence of 10 μM CLT metabolite B (Compound 6) as described in Benzaquen et al., 1995, Nature Medicine 1:534-540 and the level of DNA synthesis determined by measuring [^3H]thymidine uptake.

Gardos channel = Gardos channel (Homo sapiens, UniProt O15554); type: binding; conditions: red cells
[4] = tested on: Human melanoma cells (MM-RU); assay: [3H]thymidine uptake in MM-RU cells; type: cell-based; conditions: 10 μM
Description: as §1

[5] = tested on: NIH 3T3 mouse fibroblast cells; assay: Mitogen-induced cell proliferation; type: cell-based
Text: Other cell lines, e.g., cancer cells, endothelial cells and fibroblasts, as well as many others, may be used in the cell proliferation assay. Selection of a particular cell line will depend in part on the desired application, and is well within the capabilities of an ordinarily skilled artisan.
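Wherever Levels Plasma is given: oral tablet given every 12 h for six days, about 14 mg/kg per day for this subject, with levels then followed in plasma.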

red cell Gardos channel, sequence (O15554 whole entry): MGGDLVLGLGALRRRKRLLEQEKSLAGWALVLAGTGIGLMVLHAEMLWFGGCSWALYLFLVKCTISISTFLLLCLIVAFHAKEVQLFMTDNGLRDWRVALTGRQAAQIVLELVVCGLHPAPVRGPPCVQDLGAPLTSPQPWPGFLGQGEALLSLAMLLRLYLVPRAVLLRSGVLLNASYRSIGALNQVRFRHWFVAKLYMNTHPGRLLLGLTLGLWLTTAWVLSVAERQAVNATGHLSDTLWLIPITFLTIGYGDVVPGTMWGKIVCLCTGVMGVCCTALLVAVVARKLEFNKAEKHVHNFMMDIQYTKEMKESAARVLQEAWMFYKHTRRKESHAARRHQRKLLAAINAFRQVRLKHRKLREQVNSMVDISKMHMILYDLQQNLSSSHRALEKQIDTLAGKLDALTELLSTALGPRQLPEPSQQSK
Gardos channel, sequence (O15554 whole entry): as above
Gardos channel of erythrocytes, sequence (O15554 whole entry): as above

OC(c1ccccc1)(c1ccccc1)c1ccccc1Cl [Compound 6, 2-chlorophenyl-diphenylmethanol]
IC50 [1]: 0.961 µM
inhibition at 10 µM ([1]; read-out: Gardos Channel % Inhibition): 98%
induction of hepatic microsomal cytochrome P450 [2]: does not induce
IC50 (red cell Gardos channel): 0.72 ± 0.19 µM
IC50 for inhibition of K+ transport relative to IC50 for displacement of 125I-ChTX (red cell Gardos channel): two to three fold lower
concentration at which inhibition of K+ transport reached maximal levels (red cell Gardos channel): 10 µM
% control (red cell Gardos channel; 1 nM): 125.3%
flux (red cell Gardos channel; 1 nM): 1.444
inhibition at 0.001 µM (red cell Gardos channel; 1 nM): -25.3%
% control (red cell Gardos channel; 10 nM): 96.8%
flux (red cell Gardos channel; 10 nM): 1.115
inhibition at 0.01 µM (red cell Gardos channel; 10 nM): 3.2%
% control (red cell Gardos channel; 100 nM): 82.6%
flux (red cell Gardos channel; 100 nM): 0.952
inhibition at 0.1 µM (red cell Gardos channel; 100 nM): 17.4%
% control (red cell Gardos channel; 500 nM): 62.2%
flux (red cell Gardos channel; 500 nM): 0.717
inhibition at 0.5 µM (red cell Gardos channel; 500 nM): 37.8%
% control (red cell Gardos channel; 1 μM): 37.9%
flux (red cell Gardos channel; 1 μM): 0.437
inhibition at 1 µM (red cell Gardos channel; 1 μM): > 50%
% control (red cell Gardos channel; 5 μM): 21.7%
flux (red cell Gardos channel; 5 μM): 0.25
inhibition at 5 µM (red cell Gardos channel; 5 μM): 78.3%
% control (red cell Gardos channel; 10 μM): 9.8%
flux (red cell Gardos channel; 10 μM): 0.113
inhibition at 10 µM (red cell Gardos channel; 10 μM): 90.2%
concentration at 6 day of CLT dosing (clinical; oral, 500 mg, Subject A): 1.1 µM
concentration at 6 day (wash-out) (clinical; oral, 500 mg, Subject A, Wash-out day 6): < 0.1 µM
concentration at 10 day (wash-out) (clinical; oral, 500 mg, Subject A): < 0.1 µM
concentration at 13 day (wash-out) (clinical; oral, 500 mg, Subject A): 0 µM
concentration at 20 day (wash-out) (clinical; oral, 500 mg, Subject A): 0 µM
concentration at 3 day of CLT dosing (clinical; oral, 500 mg, Subject B, CLT day 3): 0.8 µM
concentration at 6 day of CLT dosing (clinical; oral, 500 mg, Subject B): 1.35 µM
concentration at 8 day (wash-out) (clinical; oral, 500 mg, Subject B, Wash-out day 8): < 0.1 µM
concentration at 10 day (wash-out) (clinical; oral, 500 mg, Subject B): < 0.1 µM
concentration at 13 day (wash-out) (clinical; oral, 500 mg, Subject B): 0 µM
concentration at 20 day (wash-out) (clinical; oral, 500 mg, Subject B): 0 µM
concentration at 3 day of CLT dosing (clinical; Subject A, CLT day 3, oral CLT 500 mg every twelve hours): 1.1 µM
inhibition of [3H]thymidine uptake versus controls [3]: about 50%
125I-ChTX Binding (Gardos channel; 1 nM): 1.403
125I-ChTX Binding (Gardos channel; 10 nM): 1.399
125I-ChTX Binding (Gardos channel; 100 nM): 1.239
Displacement (%) (Gardos channel; 100 nM): 6.0%
125I-ChTX Binding (Gardos channel; 500 nM): 1.134
Displacement (%) (Gardos channel; 500 nM): 21.6%
125I-ChTX Binding (Gardos channel; 1 μM): 1.327
125I-ChTX Binding (Gardos channel; 5 μM): 1.016
Displacement (%) (Gardos channel; 5 μM): 39.2%
125I-ChTX Binding (Gardos channel; 10 μM): 0.790
Displacement (%) (Gardos channel; 10 μM): 72.9%
Displacement of 125I-ChTX binding (in words) (Gardos channel): specifically displaces
melting point: 92 to 93.5 °C
inhibition of [3H]thymidine uptake versus controls [4]: about 60%
inhibition at 10 µM ([5]; NIH3T3, read-out: Mitogen-induced cell proliferation % Inhibition): 31%
IC50 ([5]; NIH3T3, read-out: Mitogen-induced cell proliferation IC50): 2.1 µM
